Reference: patent publication US9504251B2, “Pesticidal compositions and related methods” (Dow AgroSciences LLC, priority 2014, dated 2016)
Where two headings read alike, the source gives them in different places.

Assays:
[1] = test system: Sweetpotato Whitefly-crawler (Bemisia tabaci) (WF) (BEMITA); assay: Sweetpotato whitefly-crawler (WF) foliar spray assay on cotton plants; type: in vivo; settings: 216 h, 200 ppm foliar spray on cotton plants, graded after 9 days, read-out: WF % Control (or Mortality) rating
Description: Foliar spray assay for WF was prepared as follows: Cotton plants (Gossypium hirsutum) grown in 3-inch pots, with 1 small (4-5 cm) true leaf, were used as test substrate. The plants were infested with 200-400 whitefly eggs 4-5 days prior to chemical application. Four pots with individual plants were used for each treatment. Tested compounds (2 mg) were dissolved in 1 mL of acetone solvent, forming stock solutions of 2000 ppm tested compound.
The stock solutions were diluted ten times with 0.025% TWEEN® 20 surfactant in H2O (diluents) to obtain the solution at 200 ppm tested compound. A hand-held aspirator-type sprayer was used for spraying the solution to both sides of cotton leaves until runoff. The control plants (solvent check) were sprayed with the diluent only containing 10% by volume of acetone solvent. Treated plants were held in a holding room for 9 days at approximately 25° C. and ambient relative humidity (RH) prior to grading. Evaluation was conducted by counting the number of live 3-4 nymph stage per plant under a microscope. Percent control was measured by using Abbott's correction formula (W. S. Abbott, “A Method of Computing the Effectiveness of an Insecticide,” J. Econ. Entomol. 18 (1925), pp. 265-267) as follows. Corrected % Control=100*(X−Y)/X
X=No. of live nymphs on solvent check plants and
Y=No. of live nymphs on treated plants.
(§1) The comparative compounds were tested for insecticidal activities against GPA and WF pests using the same test protocols described above for the disclosed compounds.

[2] = test system: Green Peach Aphid (Myzus persicae) (GPA) (MYZUPE); assay: Green peach aphid (GPA) foliar spray bioassay on cabbage seedlings; type: in vivo; settings: 72 h, 200 ppm foliar spray on cabbage seedlings, graded after three days, read-out: GPA % Control (or Mortality) rating
Description: Bioassay for GPA was prepared as follows: Cabbage seedlings grown in 3-inch pots, with 2-3 small (3-5 cm) true leaves, were used as test substrate. The seedlings were infested with 20-50 GPA (adult and nymph stages) one day prior to chemical application. Four pots with individual seedlings were used for each treatment. The tested compounds (2 mg) were dissolved in 2 mL of acetone/methanol (1:1) solvent to form stock solutions of 1000 ppm tested compound. The stock solutions were diluted five times with an aqueous solution containing 0.025% TWEEN® 20 surfactant, which is polyoxyethylene (20) sorbitan monolaurate, to obtain the solution at 200 ppm tested compound. A hand-held aspirator-type sprayer was used for spraying the solution to both sides of cabbage leaves until runoff. The control plants (solvent check) were sprayed with the diluent only containing 20% by volume of acetone/methanol (1:1) solvent. Treated plants were held in a holding room for three days at approximately 25° C. and ambient relative humidity (RH) prior to grading. Evaluation was conducted by counting the number of live aphids per plant under a microscope. Percent control was measured by using Abbott's correction formula (W. S. Abbott, “A Method of Computing the Effectiveness of an Insecticide,” J. Econ. Entomol. 18 (1925), pp. 265-267) as follows. Corrected % Control=100*(X−Y)/X
X=No. of live aphids on solvent check plants and
Y=No. of live aphids on treated plants
as §1

[3] = Abbott-corrected % control, disclosed compounds (TABLE 2)
[4] = same protocol, comparative compounds (TABLE 3)

SMILES | mortality at 200 ppm [1, 3] | mortality at 200 ppm [2, 3] | mortality at 200 ppm [1, 4] | mortality at 200 ppm [2, 4]
O=C1c2cn(-c3cccnc3)nc2CCN1CC=NOCc1ccccc1 (racemic) [Compound P27, 2-(4-oxo-2-(pyridin-3-yl)-2,4,6,7-tetrahydro-5H-pyrazolo[4,3-c]pyridin-5-yl)acetaldehyde O-benzyl oxime] | 80 to 100% | 80 to 100% |  | 
O=C1c2cn(-c3cccnc3)nc2CCN1CC(=NOCc1ccccc1)c1ccccc1 (racemic) [Compound P36, 5-(2-((benzyloxy)imino)-2-phenylethyl)-2-(pyridin-3-yl)-2,5,6,7-tetrahydro-4H-pyrazolo[4,3-c]pyridin-4-one] | 80 to 100% | 0 to 80% |  | 
CON=CCN1CCc2nn(-c3cccnc3)cc2C1=O (single isomer, unassigned) [Compound P26, 2-(4-oxo-2-(pyridin-3-yl)-2,4,6,7-tetrahydro-5H-pyrazolo[4,3-c]pyridin-5-yl)acetaldehyde O-methyl oxime] |  | 80 to 100% |  | 
CON=C(C)CN1CCc2nn(-c3cccnc3)cc2C1=O (single isomer, unassigned) [Compound P30, 5-(2-(methoxyimino)propyl)-2-(pyridin-3-yl)-2,5,6,7-tetrahydro-4H-pyrazolo[4,3-c]pyridin-4-one] | 80 to 100% | 80 to 100% |  | 
CC(CN1CCc2nn(-c3cccnc3)cc2C1=O)=NOCc1ccccc1 (single isomer, unassigned) [Compound P31, 5-(2-((benzyloxy)imino)propyl)-2-(pyridin-3-yl)-2,5,6,7-tetrahydro-4H-pyrazolo[4,3-c]pyridin-4-one] | 80 to 100% | 80 to 100% |  | 
CON=C(CN1CCc2nn(-c3cccnc3)cc2C1=O)c1ccccc1 (single isomer, unassigned) [Compound P32, 5-(2-(methoxyimino)-2-phenylethyl)-2-(pyridin-3-yl)-2,5,6,7-tetrahydro-4H-pyrazolo[4,3-c]pyridin-4-one] | 0 to 80% | 80 to 100% |  | 
CON=C(CN1CCc2nn(-c3cccnc3)cc2C1=O)c1cccc(C(F)(F)F)c1 (single isomer, unassigned) [Compound P34, 5-(2-(methoxyimino)-2-(3-(trifluoromethyl)phenyl)ethyl)-2-(pyridin-3-yl)-2,5,6,7-tetrahydro-4H-pyrazolo[4,3-c]pyridin-4-one] |  | 80 to 100% |  | 
CON=C(CN1CCc2nn(-c3cccnc3)cc2C1=O)c1ccc(C(F)(F)F)cc1 (single isomer, unassigned) [Compound P35, 5-(2-(methoxyimino)-2-(4-(trifluoromethyl)phenyl)ethyl)-2-(pyridin-3-yl)-2,5,6,7-tetrahydro-4H-pyrazolo[4,3-c]pyridin-4-one] |  | 80 to 100% |  | 
O=C1c2cn(-c3cccnc3)nc2CCN1CC(=NOCc1ccccc1)c1cccc(C(F)(F)F)c1 (single isomer, unassigned) [Compound P38, 5-(2-((benzyloxy)imino)-2-(3-(trifluoromethyl)phenyl)ethyl)-2-(pyridin-3-yl)-2,5,6,7-tetrahydro-4H-pyrazolo[4,3-c]pyridin-4-one] | 0 to 80% | 0 to 80% |  | 
O=C1c2cn(-c3cccnc3)nc2CCN1CC(=NOCc1ccccc1)c1ccc(C(F)(F)F)cc1 (single isomer, unassigned) [Compound P39, 5-(2-((benzyloxy)imino)-2-(4-(trifluoromethyl)phenyl)ethyl)-2-(pyridin-3-yl)-2,5,6,7-tetrahydro-4H-pyrazolo[4,3-c]pyridin-4-one] | 0 to 80% | 0 to 80% |  | 
O=C1c2cn(-c3ccccn3)nc2CCN1c1ccc(C(F)(F)F)cn1 [CE6, 2-(2-Pyridyl)-5-[5-(trifluoromethyl)-2-pyridyl]-6,7-dihydropyrazolo[4,3-c]pyridin-4-one, reference compound] |  |  | < 0% | 0 to 80%
CON(C)C(=O)CN1CCc2nn(-c3cccnc3)cc2C1=O [Compound CA3, N-methoxy-N-methyl-2-(4-oxo-2-(pyridin-3-yl)-2,4,6,7-tetrahydro-5H-pyrazolo[4,3-c]pyridin-5-yl)acetamide] | 80 to 100% | 80 to 100% |  | 
CC(=O)CN1CCc2nn(-c3cccnc3)cc2C1=O [Compound CA4, 5-(2-oxopropyl)-2-(pyridin-3-yl)-2,5,6,7-tetrahydro-4H-pyrazolo[4,3-c]pyridin-4-one] |  | 80 to 100% |  | 
O=C1NCCc2nn(-c3ccccn3)cc21 [Compound CE1, 2-(pyridin-2-yl)-6,7-dihydro-2H-pyrazolo[4,3-c]pyridin-4(5H)-one, reference compound] |  |  | 0 to 80% | < 0%
CSCN1CCc2nn(-c3ccncc3)cc2C1=O [Compound CE2, 5-(methylsulfanylmethyl)-2-(4-pyridyl)-6,7-dihydropyrazolo[4,3-c]pyridin-4-one, reference compound] |  |  | 0 to 80% | 0 to 80%
CSCN1CCc2nn(-c3ccccn3)cc2C1=O [Compound CE3, 5-(Methylsulfanylmethyl)-2-(2-pyridyl)-6,7-dihydropyrazolo[4,3-c]pyridin-4-one, reference compound] |  |  | < 0% | < 0%
O=C1c2cn(-c3ccccn3)nc2CCN1c1cccc(OC(F)(F)F)c1 [Compound CE4, 2-(2-Pyridyl)-5-[3-(trifluoromethoxy)phenyl]-6,7-dihydropyrazolo[4,3-c]pyridin-4-one, reference compound] |  |  | < 0% | < 0%
O=C1c2cn(-c3ccccn3)nc2CCN1c1cccc(C(F)(F)F)n1 [Compound CE5, reference compound] |  |  | < 0% | < 0%
O=C1c2cn(-c3ccccn3)nc2CCN1c1cc(C(F)(F)F)ccn1 [Compound CE7, 2-(2-Pyridyl)-5-[4-(trifluoromethyl)-2-pyridyl]-6,7-dihydropyrazolo[4,3-c]pyridin-4-one, reference compound] |  |  | < 0% | 0 to 80%
O=C1c2cn(-c3cccnc3)nc2CCN1CC1CC1 [Compound F1, 5-(cyclopropylmethyl)-2-(pyridin-3-yl)-6,7-dihydro-2H-pyrazolo[4,3-c]pyridin-4(5H)-one] | 80 to 100% | 80 to 100% |  | 
O=C1NCCc2nn(-c3cccnc3)cc21 [Compound F2, 2-(pyridin-3-yl)-6,7-dihydro-2H-pyrazolo[4,3-c]pyridin-4(5H)-one] | 0 to 80% | 80 to 100% |  | 
O=C1c2cn(-c3cccnc3)nc2CCN1Cc1ccc(F)cc1 [Compound F3, 5-(4-fluorobenzyl)-2-(pyridin-3-yl)-6,7-dihydro-2H-pyrazolo[4,3-c]pyridin-4(5H)-one] | 0 to 80% |  |  | 
O=C(CN1CCc2nn(-c3cccnc3)cc2C1=O)c1cccc(C(F)(F)F)c1 [Compound P20, 5-(2-oxo-2-(3-(trifluoromethyl)phenyl)ethyl)-2-(pyridin-3-yl)-2,5,6,7-tetrahydro-4H-pyrazolo[4,3-c]pyridin-4-one] |  | 80 to 100% |  | 
O=C(CN1CCc2nn(-c3cccnc3)cc2C1=O)c1ccc(C(F)(F)F)cc1 [Compound P21, 5-(2-oxo-2-(4-(trifluoromethyl)phenyl)ethyl)-2-(pyridin-3-yl)-2,5,6,7-tetrahydro-4H-pyrazolo[4,3-c]pyridin-4-one] |  | 80 to 100% |  | 
